Data reported in patent publication US3992371A, “Penicillins substituted with heterocyclic and substituted phenyl groups” (Sumitomo Chemical Company, Limited, priority 1973, dated 1976).
Values after ≈ are worked out from the molar mass of the structure shown.

How the values were obtained:
Pseudomonas = conditions: background statement; cited from earlier work
[1] = test system: gram-positive and gram-negative bacteria; conditions: background statement; cited from earlier work
Escherichia coli NIHJ = experiment: Minimal inhibitory concentration, agar dilution method; assay type: cell-based
Description: (§1) When determined according to the agar dilution method, the penicillins (I) afford the minimal inhibitory concentrations against test microorganisms as shown in Table 2.

[2] = test system: Klebsiella pneumoniae PCI602; experiment: as above; assay type: cell-based
Description: as §1

[3] = test system: Pseudomonas aeruginosa 104; experiment: as above; assay type: cell-based
Description: as §1

[4] = test system: Staphylococcus aureus 209P; experiment: as above; assay type: cell-based
Description: as §1

Proteus miravilis GN2425 = experiment: as above; assay type: cell-based
Proteus vulgaris HV19 = experiment: as above; assay type: cell-based

Compound | MIC (Escherichia coli NIHJ) [µg/mL] | MIC [2] [µg/mL] | MIC [3] [µg/mL] | MIC [4] [µg/mL] | MIC (Proteus miravilis GN2425) [µg/mL] | MIC (Proteus vulgaris HV19) [µg/mL] | antimicrobial activity against Pseudomonas (Pseudomonas) | inhibition of the growth of gram-positive and gram-negative bacteria [1]
6(α-amino-thienylacetamido)penicillanic acid | – | – | – | – | – | – | do not exert any appreciable antimicrobial activity against Pseudomonas | inhibit the growth of various gram-positive and gram-negative bacteria
6-(α-amino-isothiazolylacetamido)penicillanic acid | – | – | – | – | – | – | do not exert any appreciable antimicrobial activity against Pseudomonas | inhibit the growth of various gram-positive and gram-negative bacteria
CC1(C)S[C@@H]2C(NC(=O)C(N)c3ccc(O)cc3)C(=O)N2[C@H]1C(=O)O (stereo partly drawn) [Amoxycillin, 6-(α-amino-p-hydroxyphenylacetamido)penicillanic acid] | – | – | – | – | – | – | do not exert any appreciable antimicrobial activity against Pseudomonas | inhibit the growth of various gram-positive and gram-negative bacteria
CC1(C)SC2C(NC(=O)C(NC(=O)c3cnc4cccnc4c3S)c3cccc(N)c3)C(=O)N2C1C(=O)O (stereo not drawn) [Example 37] | 1.56 (≈ 2.82 µM) | 12.5 (≈ 22.6 µM) | 0.78 (≈ 1.41 µM) | 1.56 (≈ 2.82 µM) | 1.56 (≈ 2.82 µM) | 0.05 (≈ 0.0905 µM) | – | –
COc1ccc(C(NC(=O)c2cnc3ccccc3c2S)C(=O)NC2C(=O)N3C2SC(C)(C)C3C(=O)O)cc1 (stereo not drawn) [Example 38] | 6.25 (≈ 11 µM) | 12.5 (≈ 22.1 µM) | 3.13 (≈ 5.52 µM) | 0.78 (≈ 1.38 µM) | 6.25 (≈ 11 µM) | 0.39 (≈ 0.688 µM) | – | –
COc1cnc2c(O)c(C(=O)NC(C(=O)NC3C(=O)N4C3SC(C)(C)C4C(=O)O)c3cccc(N)c3)cnc2n1 (stereo not drawn) [Example 39] | 0.78 (≈ 1.37 µM) | 6.25 (≈ 11 µM) | 0.78 (≈ 1.37 µM) | 0.78 (≈ 1.37 µM) | 0.78 (≈ 1.37 µM) | 0.025 (≈ 0.044 µM) | – | –
COc1ccc(C(NC(=O)c2cnc3ccncc3c2O)C(=O)NC2C(=O)N3C2SC(C)(C)C3C(=O)O)cc1 (stereo not drawn) [Example 41] | 3.13 (≈ 5.67 µM) | 12.5 (≈ 22.7 µM) | 3.13 (≈ 5.67 µM) | 1.56 (≈ 2.83 µM) | 12.5 (≈ 22.7 µM) | 0.39 (≈ 0.707 µM) | – | –
CC1(C)SC2C(NC(=O)C(NC(=O)c3cnc4nc(N)ncc4c3O)c3cccc(N)c3)C(=O)N2C1C(=O)O (stereo not drawn) [Example 42] | 3.13 (≈ 5.66 µM) | 12.5 (≈ 22.6 µM) | 3.13 (≈ 5.66 µM) | 1.56 (≈ 2.82 µM) | 1.56 (≈ 2.82 µM) | 0.05 (≈ 0.0905 µM) | – | –
CNc1ncc2c(O)c(C(=O)NC(C(=O)NC3C(=O)N4C3SC(C)(C)C4C(=O)O)c3cccc(N)c3)cnc2n1 (stereo not drawn) [Example 43] | 3.13 (≈ 5.52 µM) | 12.5 (≈ 22.1 µM) | 3.13 (≈ 5.52 µM) | 1.56 (≈ 2.75 µM) | 1.56 (≈ 2.75 µM) | 0.05 (≈ 0.0882 µM) | – | –
CCOC(=O)Oc1c(C(=O)NC(C(=O)NC2C(=O)N3C2SC(C)(C)C3C(=O)O)c2ccc(OC)cc2)cnc2ccc(C)nc12 (stereo not drawn) [Example 46] | 3.13 (≈ 4.91 µM) | 12.5 (≈ 19.6 µM) | 3.13 (≈ 4.91 µM) | 1.56 (≈ 2.45 µM) | 12.5 (≈ 19.6 µM) | 0.1 (≈ 0.157 µM) | – | –
CC1(C)SC2C(NC(=O)C(NC(=O)c3cnc4cccnc4c3O)c3cccc(F)c3)C(=O)N2C1C(=O)O (stereo not drawn) [Example 47] | 1.56 (≈ 2.89 µM) | 12.5 (≈ 23.2 µM) | 1.56 (≈ 2.89 µM) | 1.56 (≈ 2.89 µM) | 1.56 (≈ 2.89 µM) | 0.05 (≈ 0.0927 µM) | – | –

Continued by falling MIC (Escherichia coli NIHJ), values first:

MIC (Escherichia coli NIHJ) [µg/mL] | MIC [2] [µg/mL] | MIC [3] [µg/mL] | MIC [4] [µg/mL] | MIC (Proteus miravilis GN2425) [µg/mL] | MIC (Proteus vulgaris HV19) [µg/mL] | Compound | antimicrobial activity against Pseudomonas (Pseudomonas) | inhibition of the growth of gram-positive and gram-negative bacteria [1]
6.25 (≈ 10.5 µM) | 12.5 (≈ 21 µM) | 3.13 (≈ 5.25 µM) | 0.78 (≈ 1.31 µM) | 6.25 (≈ 10.5 µM) | 0.39 (≈ 0.655 µM) | CC1(C)SC2C(NC(=O)C(NC(=O)c3cnc4cc5c(cc4c3S)OCO5)c3cccc(N)c3)C(=O)N2C1C(=O)O (stereo not drawn) [Example 36] | – | –
3.13 (≈ 5.79 µM) | 12.5 (≈ 23.1 µM) | 3.13 (≈ 5.79 µM) | 0.78 (≈ 1.44 µM) | 6.25 (≈ 11.6 µM) | 0.1 (≈ 0.185 µM) | COc1ccc(C(NC(=O)c2cnc3cn[nH]c3c2O)C(=O)NC2C(=O)N3C2SC(C)(C)C3C(=O)O)cc1 (stereo not drawn) [Example 34] | – | –
3.13 (≈ 5.53 µM) | 12.5 (≈ 22.1 µM) | 3.13 (≈ 5.53 µM) | 1.56 (≈ 2.76 µM) | 6.25 (≈ 11.1 µM) | 0.05 (≈ 0.0884 µM) | COc1ccc(C(NC(=O)c2cnc3ccc(C)nc3c2O)C(=O)NC2C(=O)N3C2SC(C)(C)C3C(=O)O)cc1 (stereo not drawn) [Example 44] | – | –
3.13 (≈ 5.41 µM) | 6.25 (≈ 10.8 µM) | 1.56 (≈ 2.7 µM) | 1.56 (≈ 2.7 µM) | 6.25 (≈ 10.8 µM) | 0.1 (≈ 0.173 µM) | Cc1ccc2ncc(C(=O)NC(C(=O)NC3C(=O)N4C3SC(C)(C)C4C(=O)O)c3ccc(N(C)C)cc3)c(O)c2n1 (stereo not drawn) [Example 45] | – | –
1.56 (≈ 2.88 µM) | 6.25 (≈ 11.5 µM) | 1.56 (≈ 2.88 µM) | 1.56 (≈ 2.88 µM) | 1.56 (≈ 2.88 µM) | 0.025 (≈ 0.0461 µM) | CC1(C)SC2C(NC(=O)C(NC(=O)c3cnc4scnc4c3O)c3cccc(N)c3)C(=O)N2C1C(=O)O (stereo not drawn) [Example 40] | – | –
0.78 (≈ 1.38 µM) | 6.25 (≈ 11 µM) | 1.56 (≈ 2.76 µM) | 1.56 (≈ 2.76 µM) | 1.56 (≈ 2.76 µM) | 0.025 (≈ 0.0442 µM) | Cc1nc(C)c2ncc(C(=O)NC(C(=O)NC3C(=O)N4C3SC(C)(C)C4C(=O)O)c3cccc(N)c3)c(O)c2n1 (stereo not drawn) [Example 35] | – | –
